Laboratory results as given in patent US4419349A (priority 1978, dated 1983).

Legend:
Format in all cases: cell-based
mouse spleen cells = assay: IF induction in vitro, mouse (Table 6); conditions: control 1.0 μg/ml
Description: (§1) A spleen cell suspension (10^7 cells/ml) was prepared by the method of hereinafter described Experiment 1 using an Eagle MEM medium (commercial product of Nissui Seiyaku K.K., Tokyo) containing a 10% calf serum (which was replaced by a 10% fetal cattle serum in the cases of human tests), each of which fraction (1 ml) was added with a given concentration of the sample of the active substance and incubated at a given temperature. The cultured liquor was centrifuged to separate a supernatant which was used for determining the IF activity induced. In the case of humans, the fresh spleen was collected from a person (adult deceased by external wounds) and used for the preparation of a leucocytes suspension on each occasion, and also blood was collected from the vein at the upper arm of a person (adult), from which the serum was separated to use for the preparation of a serum suspension on each occasion.
(§2) The IF activities were determined by using the cells shown in Table 5 in a similar manner to that hereinafter described in Experiment 1.

human spleen cells = assay: IF induction in vitro, human spleen (Table 6); conditions: control 1.0 μg/ml
Description: as §1, §2

rabbit spleen cells = test system: rabbit spleen cells

## Poly I:C
Mouse spleen cells
  IF activity in vitro (Control): 120
Human spleen cells
  IF activity in vitro (Control): < 5
Rabbit spleen cells
  IF activity in vitro (Control): 220
